“Also recorded” adds a separate entry of the source.
Legend:
[1] = free drug; cited from earlier work
[2] = tested on: A2780 human ovarian carcinoma xenografts; settings: 5 mg/kg EPI equivalent, day 20, s.c. model; cited from earlier work
CD20 = target: T1, CD20 (Homo sapiens, UniProt P11836); test: RTX-Cy5 binding on the surface of Ramos cells, with and without RTX pre-blocking
T1 construct: host or cells: Ramos Burkitt's lymphoma cells
T1 sequence (P11836 1-297): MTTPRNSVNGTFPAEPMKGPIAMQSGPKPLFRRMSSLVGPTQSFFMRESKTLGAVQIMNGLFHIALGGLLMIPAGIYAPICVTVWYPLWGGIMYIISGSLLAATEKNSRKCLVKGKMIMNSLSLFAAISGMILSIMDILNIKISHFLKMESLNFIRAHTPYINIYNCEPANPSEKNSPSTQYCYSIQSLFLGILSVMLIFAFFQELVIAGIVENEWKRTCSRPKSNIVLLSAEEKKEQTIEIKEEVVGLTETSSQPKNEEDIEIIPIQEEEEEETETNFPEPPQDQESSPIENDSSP
Method: Non-treated, cells in culture medium; RTX-Cy5, Ramos cells (2×10^5) were treated with 1 μg RTX-Cy5 at 4° C. for 30 min; RTX Blocked+RTX-Cy5, after pre-blocking by 10 μg RTX at 4° C. for 30 min, 1 μg RTX-Cy5 was added and incubated at 4° C. for 30 min. The cells were analyzed by flow cytometry. Data are reported as MFI, mean fluorescence intensity.
To ensure CD-20 antigen expression on the surface of the Ramos cells used, the Ramos cells were exposed to RTX labeled with Cy5 (RTX-Cy5). […] This confirmed the expression of CD20 on the surface of the Ramos cells, and their specific binding affinity to RTX.

Ramos cells = test: In vitro cytotoxicity toward Ramos cells, CCK-8 assay; format: cell-based, human; settings: 48 h
Method: The cytotoxicity of antibody and antibody-polymer-drug conjugates against Ramos cells was measured by CCK-8 assay (Dojindo). The cells were seeded in 96-well plates at the density of 10,000 cells (200 μl) per well in RMPI-1640 media containing 10% FBS. After 24 h, RTX, RTX-EPI RTX-P-EPI, mixture of RTX with P-EPI and IgG-P-EPI (0.3 mg/ml×15 μl for antibody) in medium was added and incubated at 37° C. for 48 h. The number of viable cells was estimated using CCK-8 kit according to the manufacturer's protocol. In brief, 50 μl 5× diluted CCK-8 solution was added and incubated at 37° C., 5% CO2 for 4 h, the absorbance was measured using a microplate reader at 450 nm (630 nm as reference). Untreated control cells were set as 100% viable.
The cytotoxicity of RTX-P-EPI against Ramos cells was first evaluated at the concentration of 0.15 μM (related to RTX). Unconjugated RTX, non-specific conjugate IgG-P-EPI and directly conjugated with free drug (RTX-EPI) were used as controls. The Ramos cells were incubated with the samples for 48 h and evaluated by CCK-8 assay (FIG. 6).
10^4 Ramos cells were seeded in each well of 96-well plates in 200 μl RPMI-1640 media containing 10% FBS. Different samples (0.3 mg/ml×15 μl) were added and incubated at 37° C. in a humidified atmosphere of 5% CO2 (v/v). After 48 h, the number of viable cells was estimated using CCK-8 kit at 450 nm (630 nm as reference). […]

[3] = tested on: Ramos B-cell lymphoma tumors; settings: i.v., 4 doses at 3-day intervals, 20 mg/kg RTX or equivalent (EPI 1.5 mg/kg)
Method: Ramos cells (5×10^6) in 200 μl of PBS were subcutaneously inoculated in the right flank of 7- to 9-wk-old male NOD SCID mice. Tumor size was measured with a caliper, and tumor volume was calculated according to the formula: Tumor volume (mm^3)=½×length×[…], where the length (mm) is the longest and the width (mm) is the shortest dimension of the tumor. When the average tumor size reached 150±50 mm^3, treatment was initiated (n=4-5). […] Body weight variation was computed by the equation: variation=(WDayn−WDay0)/WDay0×100%. […] Saline was used as non-treated control. […] The data are presented as mean±SD (n=4-5).
NOD SCID mice were subcutaneously implanted with Ramos cells (5×10^6 cells/200 μl saline) into the right flank. […] Saline was injected as control. […] Mice were treated with 4 doses at 3-day intervals.
In addition, body weight of the mice was closely recorded during and after treatment. […] Four-doses were administered on days 11, 14, 17 and 20.

Raji cells = test: Apoptosis induction in Raji cells, Annexin V/PI staining; format: cell-based, human; settings: RTX alone
Method: Incubation time was 48 h.
Percentage of apoptotic cells was quantified by flow cytometry. All data are presented as mean±SD (n=3).
This raises the likelihood that this system will be efficient in the treatment of RTX-resistant disease.

[4] = Blood pharmacokinetics of 125I-labeled conjugates; format: in vivo, male NOD SCID mice; settings: i.v. 3.5 mg/kg single dose
Method: The conjugates were radioiodinated by the Iodogen method as previously described (Liu et al., 2009). 7-9 week-old healthy male NOD/SCID mice (n=3) were intravenously injected with ^125I labeled RTX, RTX-P-EPI or IgG-P-EPI conjugates (0.1 mg, 20 μCi per mouse), respectively. At predetermined intervals, blood samples (10 μl) were taken from the tail vein, and the radioactivity of each sample was measured with Gamma Counter (Packard).
The pharmacokinetic properties of ^125I labeled RTX, RTX-P-EPI and IgG-P-EPI were evaluated in male NOD SCID mice. Antibody was radiolabeled by ^125I and i.v. injected at 3.5 mg/kg (based on antibody for RTX, RTX-P-EPI, and IgG-P-EPI) single dose.

[5] = Biodistribution of 125I-labeled conjugates in mice bearing s.c. Ramos tumors; format: in vivo, male NOD SCID mice; settings: 72 h after intravenous injection
Method: For biodistribution study, 7-9 week-old male NOD SCID mice bearing s.c. Ramos tumors received intravenous injection of ^125I labeled RTX, RTX-P-EPI, or IgG-P-EPI (0.1 mg, 20 μCi per mouse). At 72 and 96 h after administration, the mice were sacrificed. Various tissues (heart, liver, spleen, lung, kidney, stomach, intestine, muscle, bone, brain and tumor) were harvested, weighed, and counted for radioactivity with Gamma Counter (Packard). Uptake of the conjugate was calculated as the percentage of the injected dose per gram of tissue (% ID/g). Data are presented as mean±standard deviation (n=3).
The biodistribution of RTX, RTX-P-EPI and IgG-P-EPI labeled by ^125I in male NOD SCID mice bearing s.c. xenograft tumor model was also compared.

low-grade NHL = settings: disease progression or relapse after prior RTX; cited from earlier work

Molecule: COc1cccc2c1C(=O)c1c(O)c3c(c(O)c1C2=O)C[C@@](O)(C(=O)CO)C[C@@H]3O[C@H]1C[C@H](N)[C@@H](O)[C@H](C)O1 [EPI, epirubicin]
- terminal half-life [1]: 9 to 20 min
- tumor size relative to baseline [2]: 1772±840 % of the baseline

Molecule: RTX-Cy5
- Cy5 signal of Ramos cells incubated with RTX-Cy5 (CD20; 1 μg RTX-Cy5, 4° C., 30 min): high Cy5 signal
- Cy5 signal after CD20 receptors were blocked with over-saturation dose of RTX (CD20; pre-blocking by 10 μg RTX, then 1 μg RTX-Cy5): no Cy5 signal detectable

Molecule: RTX-EPI: control conjugate in which EPI was directly attached to RTX via maleimide, EPI/RTX 3.1
- kill of Ramos cells (Ramos cells; 0.15 μM (related to RTX)): 18%
- antitumor effect (in words) [3]: marginal effects

Molecule: Rituximab [RTX, reference compound]
- cytotoxicity against Ramos cells (in words) (Ramos cells; 0.15 μM): nearly undetectable
- change of apoptosis level on increase of antibody concentration from 0.2 μM to 2 μM (Raji cells): did not significantly enhance the apoptosis level; also recorded: did not increase
- antitumor effect (in words) [3]: marginal effects
- AUC (total area under the blood concentration versus time curve) [4]: 716.46 ± 66.64 % ID h/mL
- level in the tumor [5]: 0.71 % ID/g tissue
- patients responding to RTX re-treatment (low-grade NHL): 40%
